In ChEMBL document CHEMBL1201862, “PubChem BioAssay data set” (2004):
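Growth conditions: 96-well plates. Treatment: test compound, 48 hours, 5 concentrations. Analysis: linear interpolation between bracketing concentrations; unreached endpoints set to highest concentration. GI50: concentration for 50% inhibition of growth.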 Activity calls are given as the source filed them. Rule as the data show it: active = GI50 up to about 1.1 µM and inactive = higher.

Experiments:
Experiment in all cases: NCI anticancer screen, dose series, 48 h
COLO 205 = test system: COLO 205
LXFL 529 = test system: LXFL 529
IGROV-1 = test system: IGROV-1
NCI-H460 = test system: NCI-H460
HOP-18 = test system: HOP-18
A549 = test system: A549
M19-MEL = test system: M19-MEL
TK-10 = test system: TK-10
RXF 393 = test system: RXF 393
SK-MEL-28 = test system: SK-MEL-28
HL-60 = test system: HL-60
SNB-19 = test system: SNB-19
HCC 2998 = test system: HCC 2998
OVCAR-3 = test system: OVCAR-3
786-0 = test system: 786-0
K562 = test system: K562
SN12C = test system: SN12C
HOP-62 = test system: HOP-62
OVCAR-5 = test system: OVCAR-5
LOX IMVI = test system: LOX IMVI
DMS-114 = test system: DMS-114
SF-539 = test system: SF-539
KM12 = test system: KM12
HT-29 = test system: HT-29
EKVX = test system: EKVX
SF-295 = test system: SF-295
UACC-257 = test system: UACC-257
CAKI-1 = test system: CAKI-1
NCI-H23 = test system: NCI-H23
OVCAR-8 = test system: OVCAR-8
UO-31 = test system: UO-31
MOLT-4 = test system: MOLT-4
DMS-273 = test system: DMS-273
OVCAR-4 = test system: OVCAR-4
ACHN = test system: ACHN
SK-MEL-2 = test system: SK-MEL-2
SF-268 = test system: SF-268
SNB-75 = test system: SNB-75
DLD-1 = test system: DLD-1
SR = test system: SR
SK-OV-3 = test system: SK-OV-3
NCI-H522 = test system: NCI-H522
HOP-92 = test system: HOP-92
HCT-15 = test system: HCT-15
KM-20L2 = test system: KM-20L2
XF498 = test system: XF498
Malme-3M = test system: Malme-3M
SK-MEL-5 = test system: SK-MEL-5
U-251 = test system: U-251
CCRF-CEM = test system: CCRF-CEM
M14 = test system: M14
UACC-62 = test system: UACC-62
A498 = test system: A498
HCT-116 = test system: HCT-116
NCI-H226 = test system: NCI-H226
SW-620 = test system: SW-620
SNB-78 = test system: SNB-78

Measured: GI50

CC(C)(C)c1ccc(C(O)c2ccc(C(C)(C)C)cc2)cc1
inactive: COLO 205 13.6 µM | LXFL 529 15.5 µM | IGROV-1 16.1 µM | NCI-H460 12.8 µM | HOP-18 17.5 µM | A549 14.2 µM | M19-MEL 13.7 µM | TK-10 21.1 µM | RXF 393 17.1 µM | SK-MEL-28 16.8 µM | HL-60 17.1 µM | SNB-19 17.9 µM | HCC 2998 21 µM | OVCAR-3 14.5 µM | 786-0 15.5 µM | K562 14.7 µM | SN12C 13.1 µM | HOP-62 16.3 µM | OVCAR-5 16.6 µM | LOX IMVI 14.7 µM | DMS-114 12.7 µM | SF-539 17.3 µM | KM12 15.6 µM | HT-29 10.4 µM | EKVX 17.7 µM | SF-295 14 µM | UACC-257 18.8 µM | CAKI-1 15.1 µM | NCI-H23 12.1 µM | OVCAR-8 14.8 µM | UO-31 16 µM | MOLT-4 17.6 µM | DMS-273 12.6 µM | OVCAR-4 15.2 µM | ACHN 16.6 µM | SK-MEL-2 15.2 µM | SF-268 20 µM | SNB-75 19.2 µM | DLD-1 14.6 µM | SR 23.9 µM | SK-OV-3 14.7 µM | NCI-H522 10.2 µM | HOP-92 12.6 µM | KM-20L2 17.7 µM | XF498 15.1 µM | Malme-3M 15.8 µM | SK-MEL-5 16.6 µM | U-251 13.1 µM | CCRF-CEM 16.9 µM | M14 15 µM | UACC-62 15.8 µM | A498 18.7 µM | HCT-116 12.1 µM | NCI-H226 4.72 µM | SW-620 14.6 µM
12.1 µM: HCT-15

CC(=O)/C=C1\CC(=O)N(C)c2ccccc2N1
active: SNB-75 0.0723 µM | SK-MEL-5 0.57 µM
inactive: COLO 205 44.7 µM | LXFL 529 > 100 µM | IGROV-1 > 100 µM | NCI-H460 > 100 µM | A549 > 100 µM | M19-MEL > 100 µM | TK-10 > 100 µM | RXF 393 > 100 µM | SK-MEL-28 > 100 µM | SNB-19 > 100 µM | HCC 2998 > 100 µM | OVCAR-3 > 100 µM | 786-0 > 100 µM | K562 > 100 µM | SN12C > 100 µM | HOP-62 > 100 µM | OVCAR-5 > 100 µM | LOX IMVI > 100 µM | DMS-114 29.3 µM | SF-539 > 100 µM | KM12 > 100 µM | HT-29 > 100 µM | EKVX > 100 µM | SF-295 > 100 µM | CAKI-1 > 100 µM | NCI-H23 > 100 µM | OVCAR-8 > 100 µM | UO-31 > 100 µM | MOLT-4 > 100 µM | DMS-273 > 100 µM | OVCAR-4 > 100 µM | SNB-78 > 100 µM | SK-MEL-2 > 100 µM | SF-268 > 100 µM | DLD-1 2.86 µM | SR > 100 µM | SK-OV-3 > 100 µM | NCI-H522 > 100 µM | HOP-92 > 100 µM | XF498 > 100 µM | Malme-3M > 100 µM | U-251 > 100 µM | CCRF-CEM > 100 µM | M14 > 100 µM | UACC-62 > 100 µM | HCT-116 > 100 µM | NCI-H226 > 100 µM | SW-620 > 100 µM
